PMC9822072, “Synthesis and Structure–Activity Relationship of 2,6-Disubstituted Thiosemicarbazone Derivatives of Pyridine as Potential Antituberculosis Agents” (Materials, 2023)
In brackets after ≈: the same amount, converted by molar mass. Where two headings read alike, the source gives them in different places.

Tests used:
[1] = tested on: Klebsiella pneumoniae ATCC 13883; experiment: Antibacterial microdilution broth method; type: cell-based
Method: (§1) The antibacterial and antifungal activities of compounds 4–9 were screened by the microdilution broth method using Mueller–Hinton broth for the growth of bacteria and Mueller–Hinton broth with 2% glucose for the growth of fungi. The antimicrobial assays were carried out following a previous study. The MICs of the aforementioned derivatives were evaluated for the panel of reference microorganisms from the ATCC (American Type Culture Collection), including Gram-positive bacteria (Staphylococcus aureus ATCC 25923, Staphylococcus epidermidis ATCC 12228, Micrococcus luteus ATCC 10240, Bacillus subtilis ATCC 6633, and Bacillus cereus ATCC 10876), Gram-negative bacteria (Escherichia coli ATCC 25922, Proteus mirabilis ATCC 12453, Klebsiella pneumoniae ATCC 13883, and Pseudomonas aeruginosa ATCC 9027), and fungi (Candida albicans ATCC 102231 and Candida parapsilosis ATCC 22019) (LGC Standards, Teddington, Middlesex, UK). Vancomycin (VAN), ciprofloxacin (CIP), and fluconazole (FCZ) were used as standard drugs for comparison. Each experiment was performed in triplicate.

[2] = tested on: Staphylococcus aureus ATCC 25923; experiment: Antibacterial microdilution broth method; type: cell-based; conditions: for MIC: Staphylococcus aureus
Method: as §1

[3] = tested on: Bacillus cereus ATCC 10876; experiment: Antibacterial microdilution broth method; type: cell-based
Method: as §1

[4] = tested on: Escherichia coli ATCC 25922; experiment: Antibacterial microdilution broth method; type: cell-based
Method: as §1

[5] = tested on: Bacillus subtilis ATCC 6633; experiment: Antibacterial microdilution broth method; type: cell-based
Method: as §1

[6] = tested on: Micrococcus luteus ATCC 10240; experiment: Antibacterial microdilution broth method; type: cell-based
Method: as §1

[7] = tested on: Staphylococcus epidermidis ATCC 12228; experiment: Antibacterial microdilution broth method; type: cell-based; conditions: for MIC: Staphylococcus epidermidis
Method: as §1

[8] = tested on: Pseudomonas aeruginosa ATCC 9027; experiment: Antibacterial microdilution broth method; type: cell-based
Method: as §1

[9] = tested on: Proteus mirabilis ATCC 12453; experiment: Antibacterial microdilution broth method; type: cell-based
Method: as §1

[10] = tested on: M. tuberculosis H37Rv (standard strain); experiment: Tuberculostatic activity, twofold serial microdilution with Alamar Blue; type: cell-based, Mycobacterium tuberculosis; conditions: 21 days at 37 °C; for MIC: Mycobacterium tuberculosis, H37RV, 504 h
[11] = tested on: HaCaT cells; experiment: Cytotoxic activity, sulforhodamine B method; conditions: for IC50: Homo sapiens, 72 h, read-out: IC50-HaCaT SULF; for cytotoxicity against noncancer cells (in words): MTT and sulforhodamine B methods together
[12] = tested on: HaCaT cells; experiment: Cytotoxic activity, MTT method; type: cell-based; conditions: Homo sapiens, 72 h, 3 days of incubation
[13] = tested on: Candida albicans ATCC 102231; experiment: Antifungal microdilution broth method; type: cell-based; conditions: ATCC102231, Mueller–Hinton broth with 2% glucose, read-out: MIC C. albicans ATCC 102231
Method: as §1

[14] = tested on: Candida parapsilosis ATCC 22019; experiment: Antifungal microdilution broth method; type: cell-based; conditions: Lodderomyces parapsilosis, ATCC22019; Mueller–Hinton broth with 2% glucose; read-out: MIC C. parapsilosis ATCC 22019
Method: as §1

[15] = tested on: Gram-positive bacteria; experiment: Antibacterial microdilution broth method, summary in text; type: cell-based; conditions: read-out: MIC Gram-positive bacteria
Method: as §1

[16] = tested on: other pathogenic microorganisms; parameters: method as in PMID 32061963, PMID 36013649; conditions: cited from earlier work
[17] = tested on: Mycobacterium strains; parameters: method as in PMID 32061963, PMID 36013649; conditions: cited from earlier work
[18] = ATCC13883, Mueller–Hinton broth, read-out: MIC K. pneumoniae ATCC 13883
[19] = ATCC25923, Mueller–Hinton broth, read-out: MIC S. aureus ATCC 25923
[20] = ATCC10876, Mueller–Hinton broth, read-out: MIC B. cereus ATCC 10876
[21] = ATCC25922, Mueller–Hinton broth, read-out: MIC E. coli ATCC 25922
[22] = ATCC6633, Mueller–Hinton broth, read-out: MIC B. subtilis ATCC 6633
[23] = ATCC10240, Mueller–Hinton broth, read-out: MIC M. luteus ATCC 10240
[24] = ATCC12228, Mueller–Hinton broth, read-out: MIC S. epidermidis ATCC 12228
[25] = ATCC9027, Mueller–Hinton broth, read-out: MIC P. aeruginosa ATCC 9027
[26] = ATCC12453, Mueller–Hinton broth, read-out: MIC P. mirabilis ATCC 12453

SMILES | MIC [1, 18] [µg/mL] | MIC [2, 19] [µg/mL] | MIC [3, 20] [µg/mL] | MIC [4, 21] [µg/mL] | MIC [5, 22] [µg/mL] | MIC [6, 23] [µg/mL] | MIC [7, 24] [µg/mL] | MIC [8, 25] [µg/mL] | MIC [9, 26] [µg/mL] | MIC [10] [µg/mL] | IC50 [11] [µg/mL] | cytotoxicity against noncancer cells (in words) [11] | melting point [°C] | IC50 [12] [µg/mL] | MIC [13] [µg/mL] | MIC [14] [µg/mL] | also measured
NC(=NNC(=S)N1CCOCC1)c1cccc(N2CCCC2)n1 [Compound 4, N’-(Morpholine-4-Carbonothioyl)-6-(Pyrrolidin-1-Yl)Picolinohydrazonamide] | > 1000 | 3.9 (≈ 11.7 µM) | 7.8 (≈ 23.3 µM) | > 1000 | 7.8 (≈ 23.3 µM) | 7.8 (≈ 23.3 µM) | 1.95 (≈ 5.83 µM) | > 1000 | > 1000 | 16 (≈ 47.8 µM) | > 50 | no cytotoxicity | 180 to 182 | > 50 | 250 (≈ 747 µM) | > 1000 | 
NNC(=O)c1ccncc1 [INH, isoniazid, reference compound] |  |  |  |  |  |  |  |  |  | 0.125 (≈ 0.911 µM) |  |  |  |  |  |  | 
CN[C@H](CC(C)C)C(=O)N[C@H]1C(=O)N[C@@H](CC(N)=O)C(=O)N[C@H]2C(=O)N[C@H]3C(=O)N[C@H](C(=O)N[C@H](C(=O)O)c4cc(O)cc(O)c4-c4cc3ccc4O)[C@H](O)c3ccc(c(Cl)c3)Oc3cc2cc(c3O[C@@H]2O[C@H](CO)[C@@H](O)[C@H](O)[C@H]2O[C@H]2C[C@](C)(N)[C@H](O)[C@H](C)O2)Oc2ccc(cc2Cl)[C@H]1O [VAN, Vancomycin, reference compound] |  |  |  |  |  |  |  |  |  |  |  |  |  |  |  |  | MIC ([1]; ATCC13883, read-out: MIC K. pneumoniae ATCC 13883): 0.06 µg/mL (≈ 0.0414 µM); MIC ([2]; ATCC25923, read-out: MIC S. aureus ATCC 25923): 0.98 µg/mL (≈ 0.676 µM); MIC ([3]; ATCC10876, read-out: MIC B. cereus ATCC 10876): 0.98 µg/mL (≈ 0.676 µM); MIC ([4]; ATCC25922, read-out: MIC E. coli ATCC 25922): 0.004 µg/mL (≈ 0.00276 µM); MIC ([5]; ATCC6633, read-out: MIC B. subtilis ATCC 6633): 0.24 µg/mL (≈ 0.166 µM); MIC ([6]; ATCC10240, read-out: MIC M. luteus ATCC 10240): 0.12 µg/mL (≈ 0.0828 µM); MIC ([7]; ATCC12228, read-out: MIC S. epidermidis ATCC 12228): 0.98 µg/mL (≈ 0.676 µM); MIC ([8]; ATCC9027, read-out: MIC P. aeruginosa ATCC 9027): 0.49 µg/mL (≈ 0.338 µM); MIC ([9]; ATCC12453, read-out: MIC P. mirabilis ATCC 12453): 0.03 µg/mL (≈ 0.0207 µM)
NC(=NNC(=S)N1CCCC1)c1cccc(N2CCCCC2)n1 [Compound 7, 6-(Piperidin-1-Yl)-N’-(Pyrrolidine-1-Carbonothioyl)Picolinohydrazonamide] | > 1000 | 0.49 (≈ 1.47 µM) | 1.95 (≈ 5.87 µM) | > 1000 | 1.95 (≈ 5.87 µM) | 1.95 (≈ 5.87 µM) | 0.49 (≈ 1.47 µM) | > 1000 | > 1000 | 2 (≈ 6.02 µM) | > 50 | no cytotoxicity | 166 to 168 | > 50 | 15.6 (≈ 46.9 µM) | 7.8 (≈ 23.5 µM) | MIC S. aureus ATCC 25923 ([2]; Mueller–Hinton broth): 0.49 µg/mL (≈ 1.47 µM); MIC S. epidermidis ATCC 12228 ([7]; Mueller–Hinton broth): 0.49 µg/mL (≈ 1.47 µM); MIC H37Rv [10]: 2 µg/mL (≈ 6.02 µM); MIC [15]: 0.49 µg/mL (≈ 1.47 µM)
N/C(=N\NC(=S)N1CCOCC1)c1cc(-c2ccccc2)ccn1 [MKG-1b] |  |  |  |  |  |  |  |  |  |  |  |  |  |  |  |  | MIC other pathogenic microorganisms [16]: 0.98 to 500 µg/mL; MIC toward Mycobacterium strains [17]: 3.1 µg/mL (≈ 9.08 µM)
NC(=NNC(=S)N1CCOCC1)c1cccc(Oc2ccccc2)n1 [Compound 8, N’-(Morpholine-4-Carbonothioyl)-6-Phenoxypicolinohydrazonamide] | > 1000 | 250 (≈ 699 µM) | > 1000 | > 1000 | > 1000 | 125 (≈ 350 µM) | 31.3 (≈ 87.6 µM) | > 1000 | > 1000 | 8 (≈ 22.4 µM) | 50 (≈ 140 µM) | inhibited cell metabolic activity while maintaining cell viability | 131 to 134 | 0.57 (≈ 1.59 µM) | > 1000 | > 1000 | 
O=C(O)c1cn(C2CC2)c2cc(N3CCNCC3)c(F)cc2c1=O [CIP, ciprofloxacin, reference compound] |  | 0.49 (≈ 1.48 µM) | 0.12 (≈ 0.362 µM) |  | 0.03 (≈ 0.0905 µM) | 0.98 (≈ 2.96 µM) | 0.49 (≈ 1.48 µM) |  |  |  |  |  |  |  |  |  | 
NC(=NNC(=S)N1CCCC1)c1cccc(N2CCCC2)n1 [Compound 5, 6-(Pyrrolidin-1-Yl)-N’-(Pyrrolidine-1-Carbonothioyl)Picolinohydrazonamide] | > 1000 | 0.49 (≈ 1.54 µM) | 7.8 (≈ 24.5 µM) | > 1000 | 0.49 (≈ 1.54 µM) | 0.49 (≈ 1.54 µM) | 0.49 (≈ 1.54 µM) | > 1000 | > 1000 | 2 (≈ 6.28 µM) | > 50 | no cytotoxicity | 200 to 201 | > 50 | 250 (≈ 785 µM) | 1000 (≈ 3140 µM) | MIC [15]: 0.49 µg/mL (≈ 1.54 µM)
OC(Cn1cncn1)(Cn1cncn1)c1ccc(F)cc1F [FCZ, fluconazole, reference compound] |  |  |  |  |  |  |  |  |  |  |  |  |  |  | 0.98 (≈ 3.2 µM) | 1.95 (≈ 6.37 µM) | 
NC(=NNC(=S)N1CCOCC1)c1cccc(N2CCCCC2)n1 [Compound 6, N’-(Morpholine-4-Carbonothioyl)-6-(Piperidin-1-Yl)Picolinohydrazonamide] | > 1000 | 1.95 (≈ 5.6 µM) | 7.8 (≈ 22.4 µM) | > 1000 | 7.8 (≈ 22.4 µM) | 0.98 (≈ 2.81 µM) | 0.98 (≈ 2.81 µM) | > 1000 | > 1000 | 8 (≈ 23 µM) | > 50 | inhibited cell metabolic activity while maintaining cell viability | 177 to 178 | 9.49 (≈ 27.2 µM) | 1000 (≈ 2870 µM) | 1000 (≈ 2870 µM) | 
NC(=NNC(=S)N1CCCC1)c1cccc(Oc2ccccc2)n1 [Compound 9, 6-Phenoxy-N’-(Pyrrolidine-1-Carbonothioyl)Picolinohydrazonamide] | > 1000 | 0.98 (≈ 2.87 µM) | 3.9 (≈ 11.4 µM) | 1000 (≈ 2930 µM) | 0.49 (≈ 1.44 µM) | 0.49 (≈ 1.44 µM) | 0.49 (≈ 1.44 µM) | 1000 (≈ 2930 µM) | > 1000 | 8 (≈ 23.4 µM) | 1.31 (≈ 3.84 µM) | showed the same while losing cell viability | 170 to 173 | 0.06 (≈ 0.176 µM) | 1000 (≈ 2930 µM) | 1000 (≈ 2930 µM) | 
